{"source": "patent US20190125735A1", "about": "“INHIBITION OF P38 MAPK FOR THE TREATMENT OF CANCER” (Board of Regents, The University of Texas System, priority 2015, published 2019)", "key": {"[1]": {"test_system": "FOXC2", "experiment": "FOXC2 protein levels by immunoblotting in mammary cell lines", "format": "cell-based, human", "conditions": "series of cell lines, relative to vehicle, 24 h", "description": "Immortalized human mammary epithelial (HMLE) cells expressing empty vector (pWZL), Snail, Twist, Goosecoid (GSC), or an activated form of TGFβ1, V12H-Ras-transformed HMLE (HMLER) and HMLER-FOXC2 cells were maintained as previously described (Elenbaas et al., 2001) For 4-hydroxy-tamoxifen (4-OHT) treatment, HMLE-Snail-ER or HMLE-Twist-ER cells were exposed to 20 nM 4-OHT for the indicated number of days. MCF7, MDA-MB-231 and SUM159 human breast cancer cells and the 4T1 mouse mammary carcinoma cells were cultured as described. Human non-tumorigenic MCF10A cells were cultured as described (Hollier et al., 2013), and treated with 2.5 ng/ml TGFβ1 for 3 days to elicit EMT.\nImmunoblotting and immunofluorescence (Mani et al., 2008) were performed as previously described. Primary antibodies were as follows: β-actin (Sigma, St Louis, Mo., USA; A3853), mouse anti-human FOXC2 (Dr. Naoyuki Miura, Hamamatsu University School of Medicine, Japan), goat polyclonal anti-FOXC2 (Santa Cruz Biotechnology, Dallas, Tex., USA; sc-21397), p-p38 (Cell Signaling, Danvers, Mass., USA; 4511), p38 (Cell Signaling; 9211), E-cadherin (BD Biosciences, San Jose, Calif., USA; 61081), fibronectin (BD Biosciences; 610077), vimentin (Novus Biologicals, Littleton, Colo., USA; NB200-623), ZEB1 (Novus Biologicals; NBP1-05987), and HA (Covance, Princeton, N.J., USA; MMS-101P)."}, "[2]": {"test_system": "HMLE-Snail-ER and HMLE-Twist-ER cells", "experiment": "Sphere formation of 4-OHT-treated HMLE-Snail-ER and HMLE-Twist-ER cells", "format": "cell-based, human", "conditions": "4-OHT-treated cells, SB203580 exposure", "description": "FIGS. 15A-15L: p38 inhibition compromises the acquisition and maintenance of EMT and stem cell properties in vitro. […] Cells were harvested and the corresponding lysates were analyzed by immunoblotting for FOXC2, E-cadherin and mesenchymal markers. β-actin was used as a loading control. […] Cells were harvested at the indicated timepoints and the corresponding lysates were analyzed by immunoblotting for FOXC2, E-cadherin and mesenchymal markers. β-actin was used as a loading control. […] One thousand cells were seeded per well in ultra-low attachment plates and cultured for 7-10 days. Spheres with a diameter greater than 75 μm were counted. The data are reported as the number of spheres formed/1000 seeded cells±SEM. […] Data are presented as mean±SEM. […] The corresponding lysates were analyzed by immunoblotting for FOXC2, E-cadherin and mesenchymal markers. β-actin was used as a loading control. (F) The sphere-forming efficiency of 4-OHT-treated HMLE-Twist-ER cells, transduced with control shRNA (shControl) or p38 shRNA (shp38), was determined. […] (H) The sphere-forming efficiency of the indicated cells was determined in the presence of vehicle or SB203580. […] (J) The relative wound closure by the indicated cells, treated with vehicle or SB203580, was measured by image analysis and represented in a graphical format. […] Degradation of FITC-gelatin was quantified by image analysis. n=150 cells/sample. […]"}, "[3]": {"test_system": "DU145 cells", "experiment": "Morphology and marker expression (qRTPCR, immunoblotting, IF) in DU145 cells", "format": "cell-based, human", "description": "Cell lines: Authenticated LNCaP, DU145, and PC3 cells were procured from ATCC and cultured in RPMI with 10% fetal bovine serum (FBS) with penicillin/streptomycin. Cells overexpressing EMT transcription factors and shRNA were also cultured in the same media. HEK293T cells were cultured in DMEM with 10% FBS and penicillin/streptomycin. All cell lines used for this study were recently confirmed negative for mycoplasma contamination.\nImmunoblotting, Immunofluorescence, RTPCR, wound healing- and tumorsphere assays were performed as previously described (Sarkar et al., 2015). Cell viability (MTS) was assessed using the CellTiter96 Aqueous One-Solution Cell Proliferation Assay kit (Promega)."}, "[4]": {"test_system": "DU145 cells", "experiment": "DU145 subcutaneous tumors in NOD/SCID mice", "format": "in vivo", "conditions": "subcutaneous dosing 5 days/week; SB203580 0.2 μmols per mouse, Enzalutamide 10 mg/kg; vs vehicle", "quoted_text": "To investigate the effect of inhibition of FOXC2-dependent EMT/CSC attributes on tumor formation in vivo, NOD/SCID mice were subcutaneously injected with DU145 cells and began treatment in vivo, after formation of palpable tumors.\nImmediately after sacrificing the mice, ˜100 μl blood was isolated via venipuncture in EDTA-treated collection tubes and stored on ice. Within 30 minutes, the blood was spun down at 1200 rpm for 5 minutes, and the pellet resuspended in 1 ml ACK-lysing buffer (Life Tech) and further incubated for 3-5 minutes. Cells were washed once with PBS, resuspended in RPMI with 10% FBS and pen/strep, and cultured on 10 cm tissue culture dishes. RFP-positive colonies (originating from the labeled DU145 cells injected into mice) were counted after 3-4 days in culture and quantified.\n˜4 week-old male NOD.CB17-Prkdcscid/J mice were purchased from the Jackson Laboratory (Maine, USA). […] Once palpable tumors were discernable, tumor-bearing mice were randomly segregated into 4 groups, and drug treatment was initiated every 24 hours for 5 days/week. […] Investigators were blinded to the group allocation while assessing experimental outcomes. At the end of the treatment period, tumors were excised, average diameter calculated using calipers, and tumor weight noted. […]"}, "[5]": {"test_system": "BCR-ABL+ mouse ALL cells", "conditions": "MSC co-culture", "quoted_text": "Leukemic cell apoptosis was analyzed by flow cytometry using BD LSRFortessa or Accuri C6 flow cytometer (BD Biosciences) after the cells were stained with Annexin V (BD Biosciences, San Jose, Calif.). Data were analyzed by FlowJo software (Ashland, Oreg.)."}}}
{"smiles": "C[S+]([O-])c1ccc(-c2nc(-c3ccc(F)cc3)c(-c3ccncc3)[nH]2)cc1", "note": "(stereo not drawn) [SB203580, 4-(4-Fluorophenyl)-2-(4-methylsulfinylphenyl)-5-(4-pyridyl) 1H-imidazole]", "values": [{"measurement": "FOXC2 protein levels", "setting": "[1]", "result": "consistent and striking decrease in FOXC2 protein levels"}, {"measurement": "Sphere-forming potential", "setting": "[2]", "result": "failed to acquire sphere-forming potential"}, {"measurement": "AR and PSA expression", "setting": "[3]; DU145, 5 μM, 7 days", "result": "restoration of AR and PSA expression"}, {"measurement": "Expression of Bmi1 and Sox2", "setting": "[3]; DU145, 5 μM, 7 days", "result": "significant reduction"}, {"measurement": "FOXC2 expression", "setting": "[3]; DU145, 5 μM, 7 days", "result": "dramatic loss in FOXC2 expression"}, {"measurement": "Morphology / phenotype", "setting": "[3]; DU145, 5 μM, 7 days", "result": "acquisition of an epithelial phenotype"}, {"measurement": "Expression of AR, PSA and E-cadherin over time (qRTPCR)", "setting": "[3]; DU145, days 0-7 after treatment", "result": "consistently increased right after 48 hours, but reached highest levels at day 7"}, {"measurement": "Tumor size (volume and weight)", "setting": "[4]", "result": "no appreciable change in tumor size"}, {"measurement": "Apoptosis of leukemic cells", "setting": "[5]", "result": "did not affect proliferation or apoptosis of leukemic cells"}]}
